From patent US12257225B2, “Polyoxometalate complexes and pharmaceutical compositions” (Emory University, priority 2016, dated 2025)
Where “and” joins values, the source holds several entries; their conditions need not be identical. Identical values can stand only once. Entries after “also recorded” stand apart in the source; their conditions may differ.

Key:
KB-3-1 cells = assay: Total cellular ROS by flow cytometry, KB-3-1; assay type: cell-based, human
Description: Transition-metal-based polyoxoanions sometimes have the ability to catalyze a range of oxidation reactions and to generate the free radicals under mild conditions. Although it is not intended that embodiments of this disclosure be limited by any particular mechanism, it is quite reasonable that VPOA-6 may enhance the production or accumulation of reactive oxygen species (ROS) in cancer cells leading to oxidative stress and cell death. To test this hypothesis, the levels of total cellular ROS (H2O2) were measured using flow cytometry. […] To assess the functional importance of ROS induction in the VPOA-6-treated KB-3-1 cells, cells were co-treated with both VPOA-6 (5 and 10 μM) and a ROS scavenger N-acetyl-L-cysteine (NAC, 3 mM).

KB-CP.5 cancer cells = assay: Apoptosis of cisplatin-resistant KB-CP.5 cancer cells; assay type: cell-based, human
Procedure: Apoptosis was measured after cells treated with VPOA-6 at different concentrations for 48 hr. […] NAC rescues the VPOA-6-induced apoptosis in KB-CP.5 cancer cells. Cancer cells were cultured with VPOA-6 (5 or 10 μM) with or without ROS scavenging agent NAC (3 mM) for 48 hr before apoptosis measurement.

KB-3-1 cancer cells = assay: Apoptosis of KB-3-1 cancer cells; assay type: cell-based, human
Procedure: Apoptosis was measured after cancer cells were treated with the drug for 48 hr. […] Cancer cells were cultured with VPOA-6 (5 or 10 μM) with or without NAC (3 mM) for 48 hr before apoptosis measurement.

[1] = system: normal proliferating cells; assay: Selective killing of cancer versus normal proliferating cells; assay type: cell-based; settings: for activity and selectivity, KB-3-1 versus normal cells: simple vanadium compounds
Procedure: (§1) A variety of cancer or normal cells were grown in 96-well plates and treated with VPOA-6 at 0-20 μM for 72 h. Cytotoxicity was measured using cell counting kit-8.
The effect of VPOA-6 on the viability of a spectrum of cancer cells and normal proliferating cells were then evaluated. […] In particular, four major types of human cancer cell lines, A549 (lung), U87 (brain), SKOV-3 (ovarian), and KB-3-1 (cervical), are highly sensitive to VPOA-6 with IC50 values below 5 μM.

KB-3-1 cancer cell line = assay: Cytotoxicity, cell counting kit-8, KB-3-1; assay type: cell-based, human; settings: KB-3-1 cells, 72 h
Procedure: as §1
The effective catalytic oxidation of cellular antioxidants by VPOA-6, led to an assessment of the viability of both cancer and normal cell lines in the presence of VPOA-6. Four VPOA analogues (FIG. 1B) for selectivity of VPOA-6 in killing cancer cells by cytotoxicity towards the fast-growing KB-3-1 cancer cell line.
(§2) Cell lines used in this study are as follows.

[2] = system: SKOV-3, ovarian carcinoma cell; assay: Cytotoxicity, cell counting kit-8, SKOV-3; assay type: cell-based, human; settings: SKOV-3 cells, 72 h
Procedure: as §1, §2

[3] = system: KB-CP.5, cisplatin-resistant cervical carcinoma cell; assay: Cytotoxicity, cell counting kit-8, KB-CP.5; assay type: cell-based, human
Procedure: as §1
(§3) The high incidence of drug resistance is a major challenge in treatment of relapsed and refractory cancers. […] The resistance of tumor cells to platinum-based chemotherapeutics is known to be associated with increased GSH levels; whereas cancer cells with high GSH levels are frequently more sensitive to drugs that affect GSH43.
as §2

[4] = system: KB-3-1 human cervical carcinoma; assay: KB-3-1 xenograft mouse model, antitumor efficacy; assay type: in vivo, mice; settings: for tumor inhibition effect: 16 μmol/kg i.p.
Description: In vivo antitumor effect of VPOA-6. Inhibition of human head-and-neck KB-3-1 tumor growth by VPOA-6 treatment in tumor-bearing mice. […] Mice were then euthanized, vital organs collected and processed for histological examination.
Human cervical cancer is one of the most aggressive forms of human cancer. […] Specifically when using i.p. administration, the tumor volume of VPOA-6-treated group at a dose of 40 μmol/kg was less than 40% of that control group at the end point. […] Evaluation of VPOA-6 side effects. A central issue in developing new chemotherapeutics is to minimize the side effects associated with the non-specific interaction of the drugs with normal organ tissues.

[5] = Side effects in treated tumor-bearing mice; assay type: in vivo
Description: Mice were then euthanized, vital organs collected and processed for histological examination.

cancer cells [6] = system: cancer cells
[7] = system: human embryonic kidney HEK 293; assay type: cell-based
Procedure: as §1
One aspect of selectivity is the efficacy ratio of a therapeutic agent for normal cells versus cancer cells.
as §2

[8] = Catalysis of glutathione oxidation monitored by 1H NMR; assay type: biochemical
Procedure: GSH (10 mM) in deuterated PBS (1×, pH 7.4) solution at 37° C. in a cell culture incubator. The arrow on the top spectrum indicates the chemical shift of a dominant peak (absent here) in the oxidation product (GSSG).
Vanadium-containing compounds have extensive redox properties and consequently catalyze several organic substrate oxidations via free radical mechanisms. VPOA-6 is a highly efficient catalyst for oxidizing glutathione (GSH), the primary intracellular antioxidant, through both aerobic oxidation and peroxidation under physiologically relevant conditions. Glutathione is the most abundant cellular reducing metabolite with concentrations in the millimolar range and is regarded as the primary mechanism for protecting cells against oxidative stress during proliferation and growth. In order to evaluate the inherent catalytic capability of VPOA-6, proton nuclear magnetic resonance (1H NMR) spectroscopy was used to monitor the in vitro oxidation of GSH. Two reactions were designed for this purpose, GSH reacting with air (O2) and, separately, GSH reacting with peroxide (H2O2) in PBS buffer (1×pH 7.4) at 37° C.

[9] = Catalysis of ascorbic acid oxidation; assay type: biochemical; settings: air or peroxide, physiological conditions
KB-CP.5 cancer cell = assay: ROS in drug-resistant KB-CP.5 cells; assay type: cell-based, human
[10] = system: NCI-H460, large cell lung carcinoma; assay: Cytotoxicity, cell counting kit-8, NCI-H460; assay type: cell-based, human; settings: NCI-H460 cells, 72 h
Procedure: as §1, §2

[11] = system: KB-8-5, multi-drug resistant cervical carcinoma cell; assay: Cytotoxicity, cell counting kit-8, KB-8-5; assay type: cell-based, human; settings: KB-8-5 cells, 72 h
Procedure: as §1, §3, §2

[12] = system: OVCAR-3, ovarian carcinoma; assay: Cytotoxicity, cell counting kit-8, OVCAR-3; assay type: cell-based, human; settings: OVCAR-3 cells, 72 h
Procedure: as §1, §2

cancer cells [13] = assay: TUNEL and Annexin V-PE staining assays; assay type: cell-based; settings: normal proliferating cells remain alive
Procedure: (§4) One aspect of selectivity is the efficacy ratio of a therapeutic agent for normal cells versus cancer cells. In sharp contrast to cancer cells, human embryonic kidney HEK 293, human lung MRC-5, and human bronchus BEAS-2B normal cells are viable at VPOA-6 concentrations up to 20 μM. […] A fluorescent-labeling technique successfully images the uptake of VPOA-6 into living cells showing that cancer cells readily internalize this nanodrug within 8 hr even at very low concentrations (1 μM).

cancer cells [14] = assay: Uptake into living cells by fluorescent labeling; assay type: cell-based; settings: 1 μM
Procedure: as §4

[15] = system: D556, medulloblastoma cell; assay: Cytotoxicity, cell counting kit-8, D556; assay type: cell-based; settings: D556 cells, 72 h
Procedure: as §1, §2

[16] = pH 7.4

CC(=O)N[C@@H](CS)C(=O)O [NAC, N-acetyl-L-cysteine, reference compound]
effect of NAC on ROS and cell killing by VPOA-6 (KB-3-1 cells; KB-3-1, VPOA-6 5 and 10 μM, NAC 3 mM): reduces ROS and the cell killing by VPOA-6 | effect of NAC on VPOA-6-induced apoptosis (KB-CP.5 cancer cells; KB-CP.5, VPOA-6 5 or 10 μM, NAC 3 mM, 48 hr): rescues | effect of NAC on VPOA-6-induced apoptosis (KB-3-1 cancer cells; KB-3-1, VPOA-6 5 or 10 μM, NAC 3 mM, 48 hr): rescues

[Na+].[Na+].[Na+].[O]=[V]([O-])([O-])[O-] [Na3VO4]
activity and selectivity, KB-3-1 versus normal cells [1]: active but nonselective

[Na+].[O]=[V](=[O])[O-] [NaVO3]
activity and selectivity, KB-3-1 versus normal cells [1]: active but nonselective

CCCC[N+](CCCC)(CCCC)CCCC [TBA Cl, reference compound]
IC50 (KB-3-1 cancer cell line): 289 ± 12 µM

[O]=[V](=[O])[O][V](=[O])=[O] [V2O5]
activity and selectivity, KB-3-1 versus normal cells [1]: active but nonselective

N.N.[Cl][Pt][Cl] [cisplatin, reference compound]
IC50 [2]: 4.4 µM | IC50 (KB-3-1 cancer cell line): 2.8 µM | resistance of KB-CP.5 compared to parental KB-3-1 ([3]; KB-CP.5 versus KB-3-1): ca. 40 fold | tumor inhibition effect ([4]; weekly for 24 days): did not exhibit any tumor inhibition effect | mortality ([5]; increased dosages): widespread death | health and body weight of treated mice ([5]; treatment period): deteriorated health and severe body weight loss

OO [hydrogen peroxide]
interaction with VPOA-6 in killing cancer cells (cancer cells [6]): acted synergistically with VPOA-6

[V6O13{(OCH2)3CCH2OH}2] [VPOA-OH]
IC50 (KB-3-1 cancer cell line): 21 ± 1.47 µM

[V6O13{(OCH2)3CCH3}2] [VPOA-CH3]
IC50 (KB-3-1 cancer cell line): 16.21 ± 0.08 µM

[V6O13{(OCH2)3CNH3}2] [VPOA-6]
toxicity in cell viability studies [7]: much less so | ROS and apoptosis in normal cells (normal cells): ROS increase but did not show obvious apoptosis | ROS levels (KB-3-1 cells; KB-3-1, 5 and 10 μM, versus non-treated cells): significant surge in ROS levels | apoptosis (KB-CP.5 cancer cells; KB-CP.5): remarkable apoptosis | product of GSH oxidation ([8]; H2O2, PBS pH 7.4, 37° C., after 30 minutes): over-oxidized product, GS(═O)SG | time for conversion of GSH to GSSG ([8]; air, GSH 10 mM, PBS pH 7.4, 37° C.): ≤ 30 min | catalysis of ascorbic acid oxidation [9]: efficiently catalyzes ascorbic acid oxidation | IC50 [2]: 3.12 ± 0.05 µM | selective killing: cytotoxicity in cancer versus normal proliferating cells ([1]; 0-20 μM, 72 h): no cytotoxicity in normal proliferating cells; also recorded: induces cell death in cancer cells (Tumor) but not in normal proliferating cells (Normal) | ROS levels (KB-CP.5 cancer cell): dramatic ROS increase | apoptosis (KB-3-1 cancer cells; KB-3-1, 48 hr): Dose-dependent apoptosis | IC50 [10]: 8.69 ± 0.91 µM | IC50 (KB-3-1 cancer cell line): 3.45 µM and < 5 µM | IC50 [11]: 3.7 µM | IC50 ([3]; KB-CP.5 cells, 72 h): 5.53 µM | tumor inhibition effect ([4]; weekly for 24 days): clearly demonstrated the antitumor effect | tumor volume relative to control group at the end point ([4]; 40 μmol/kg i.p., weekly for 24 days): less than 40% | tumor growth inhibition, overall ([4]; i.p. or i.v., KB-3-1 xenografted mice): significantly inhibits growth; also recorded: quite effective | tumor inhibition ([4]; i.v. administration): more significant tumor inhibition | IC50 [12]: 10.8 ± 0.49 µM | apoptosis by TUNEL and Annexin V-PE staining (cancer cells [13]): dramatic apoptosis of the cancer cells | time to internalization by cancer cells (cancer cells [14]): ≤ 8 h | IC50 [15]: 7.36 ± 0.54 µM | stability [16]: stable | nephrotoxicity ([5]; mouse, in vivo): not observed

[V6O13{(OCH2)3CNO2}2] [VPOA-NO2]
IC50 (KB-3-1 cancer cell line): 13.7 ± 0.15 µM
